Laboratory results taken from article PMC3919815, “Anti-Tumor Effects of Novel 5-O-Acyl Plumbagins Based on the Inhibition of Mammalian DNA Replicative Polymerase Activity” (PLoS ONE, 2014).
Values joined by “and” are separate entries in the source; they are usually repeats but may differ in a detail not shown here. Identical values can stand only once.

Key:
Calf TdT = target: T1, Calf TdT (Bos taurus, UniProt P06526); assay: TdT activity inhibition; assay type: biochemical; details: 0.05 units enzyme; mean ± SD (n = 3)
T1 construct: purchased Takara Bio Inc. (Kyoto, Japan)
Excerpt: Pol α was purified from calf thymus by immunoaffinity column chromatography as described by Tamai et al.. Recombinant rat pol β was purified from Escherichia coli JMpβ5 as described by Date et al.. The human pol γ catalytic gene was cloned into pFastBac. Histidine-tagged enzyme was expressed using the BACTO-BAC HT Baculovirus Expression System according to the manufacturer's instructions (Life Technologies, Frederick, MD, USA) and purified using ProBound resin (Invitrogen Japan, Tokyo Japan). Human pols δ and ε were purified by nuclear fractionation of human peripheral blood cancer cells (Molt-4) using the second subunit of pol δ and ε-conjugated affinity column chromatography, respectively. A truncated form of human pol η (residues 1–511) tagged with His6 at its C-terminal was expressed in E. coli cells and purified as described by Kusumoto et al.. A recombinant mouse pol ι tagged with His6 at its C-terminal was expressed and purified by Ni–NTA column chromatography. […]
The chemically synthesized 5-O-acyl plumbagins (2a–j) were dissolved in distilled dimethyl sulfoxide (DMSO) to various concentrations and sonicated for 30 s. […] Activity without inhibitor was considered 100%, and the relative activity was determined for each inhibitor concentration. […]

[1] = target: T2, Bovine deoxyribonuclease I (Bos taurus, UniProt P00639); assay: Other DNA metabolic enzyme assay; assay type: biochemical
T2 construct: Bovine pancreas deoxyribonuclease I was obtained from Stratagene Cloning Systems; purchased Stratagene Cloning Systems (La Jolla, CA, USA); host or cells: bovine pancreas
Excerpt: (§1) Pol α was purified from calf thymus by immunoaffinity column chromatography as described by Tamai et al.. Recombinant rat pol β was purified from Escherichia coli JMpβ5 as described by Date et al.. The human pol γ catalytic gene was cloned into pFastBac. Histidine-tagged enzyme was expressed using the BACTO-BAC HT Baculovirus Expression System according to the manufacturer's instructions (Life Technologies, Frederick, MD, USA) and purified using ProBound resin (Invitrogen Japan, Tokyo Japan). Human pols δ and ε were purified by nuclear fractionation of human peripheral blood cancer cells (Molt-4) using the second subunit of pol δ and ε-conjugated affinity column chromatography, respectively. A truncated form of human pol η (residues 1–511) tagged with His6 at its C-terminal was expressed in E. coli cells and purified as described by Kusumoto et al.. A recombinant mouse pol ι tagged with His6 at its C-terminal was expressed and purified by Ni–NTA column chromatography. A truncated form of pol κ (residues 1–560) with 6× His-tags attached at the C-terminus was overexpressed in E. coli and purified as described by Ohashi et al.. Recombinant human His-pol λ was overexpressed and purified according to a method described by Shimazaki et al.. Recombinant human His-pol μ was overexpressed in E. coli BL21 and purified using Glutathione Sepharose 4B (GE Healthcare Bio-Science Corp., Piscataway, NJ, USA) column chromatography according to the method for pol λ preparation by Shimazaki et al.. Pol α from a higher plant, cauliflower, was purified from the inflorescence structure according to the methods outlined by Sakaguchi et al.. Recombinant rice (Oryza sativa L. cv. Nipponbare) pol λ tagged with His6 at the C-terminus was expressed in E. coli and purified as described by Uchiyama et al.. Calf TdT, Taq pol, T4 pol, T7 RNA polymerase, and T4 polynucleotide kinase were purchased from Takara Bio Inc. (Kyoto, Japan). The Klenow fragment of pol I from E. coli was purchased from Worthington Biochemical Corp. (Freehold, NJ, USA). Bovine pancreas deoxyribonuclease I was obtained from Stratagene Cloning Systems (La Jolla, CA, USA).
(§2) The activities of calf primase of pol α, T7 RNA polymerase, mouse inosine-5′-[…] (IMP) dehydrogenase (type II), T4 polynucleotide kinase, and bovine deoxyribonuclease I were measured in standard assays according to the manufacturer's specifications, as described by Tamiya-Koizumi et al., Nakayama and Saneyoshi, Mizushina et al., Soltis et al., and Lu and Sakaguchi, respectively.

T4 polynucleotide kinase = target: T3, T4 polynucleotide kinase (Enterobacteria phage T4, UniProt P06855); assay: Other DNA metabolic enzyme assay; assay type: biochemical
T3 construct: purchased Takara Bio Inc. (Kyoto, Japan)
Excerpt: as §1, §2

T7 RNA polymerase = target: T4, T7 RNA polymerase (Escherichia phage T7, UniProt P00573); assay: Other DNA metabolic enzyme assay; assay type: biochemical
T4 construct: purchased Takara Bio Inc. (Kyoto, Japan)
Excerpt: as §1, §2

A549 (lung cancer) = assay: Cancer cell viability, MTT assay; assay type: cell-based, human; details: 48 h, mean ± SD (n = 5)
Protocol: (§3) The following human cancer cell lines were obtained from the American Type Culture Collection (Manassas, VA, USA): lung (A549), prostate (DU145 and PC3), colon (HCT116 and HT-29), cervix (HeLa), hepatocellular liver (HepG2), breast (MCF-7), and pancreatic cancer (PANC-1). These cells were cultured in RPMI 1640 medium supplemented with 10% fetal bovine serum, penicillin (100 units/mL), streptomycin (100 µg/mL), and 1.6 mg/mL NaHCO3 at 37°C in a humid atmosphere of 5% CO2/95% air. For the cell viability assay, cells were seeded at 1×10^3 cells/well in a 96-well microplate with various concentrations of the test compounds, and incubated for 48 h. MTT (3-(4,5-dimethylthiazol-2-yl)-2,5-diphenyl tetrazolium bromide) solution was added to a final concentration 0.6 mg/mL in Milli-Q purified water for 2 h, after which time the medium was discarded and the cells lysed in DMSO. A540 was then measured in a microplate reader (Model 680, Bio-Rad Laboratories, Hercules, CA, USA).

DU145 (prostate cancer) = assay: Cancer cell viability, MTT assay; assay type: cell-based, human; details: 48 h, mean ± SD (n = 5)
Protocol: as §3

HCT116 (colon cancer) = assay: Cancer cell viability, MTT assay; assay type: cell-based, human; details: 48 h
Protocol: as §3

HeLa (cervical cancer) = assay: Cancer cell viability, MTT assay; assay type: cell-based, human; details: 48 h, mean ± SD (n = 5)
Protocol: as §3

[2] = test system: HepG2 (hepatocellular liver cancer); assay: Cancer cell viability, MTT assay; assay type: cell-based, human; details: 48 h, mean ± SD (n = 5)
Protocol: as §3

MCF-7 (breast cancer) = assay: Cancer cell viability, MTT assay; assay type: cell-based, human; details: 48 h, mean ± SD (n = 5)
Protocol: as §3

[3] = test system: PANC-1 (pancreatic cancer); assay: Cancer cell viability, MTT assay; assay type: cell-based, human; details: 48 h, mean ± SD (n = 5)
Protocol: as §3

PC3 (prostate cancer) = assay: Cancer cell viability, MTT assay; assay type: cell-based, human; details: 48 h, mean ± SD (n = 5)
Protocol: as §3

T3 sequence (P06855 whole entry): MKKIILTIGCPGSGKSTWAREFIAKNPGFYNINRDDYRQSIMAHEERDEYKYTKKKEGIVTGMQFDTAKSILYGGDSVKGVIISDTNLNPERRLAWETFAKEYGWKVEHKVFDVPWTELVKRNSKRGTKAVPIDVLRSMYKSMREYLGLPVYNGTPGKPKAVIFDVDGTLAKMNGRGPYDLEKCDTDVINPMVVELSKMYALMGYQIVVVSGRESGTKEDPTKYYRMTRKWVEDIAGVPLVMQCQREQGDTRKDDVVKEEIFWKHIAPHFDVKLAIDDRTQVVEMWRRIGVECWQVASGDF
T2 sequence (P00639 23-282): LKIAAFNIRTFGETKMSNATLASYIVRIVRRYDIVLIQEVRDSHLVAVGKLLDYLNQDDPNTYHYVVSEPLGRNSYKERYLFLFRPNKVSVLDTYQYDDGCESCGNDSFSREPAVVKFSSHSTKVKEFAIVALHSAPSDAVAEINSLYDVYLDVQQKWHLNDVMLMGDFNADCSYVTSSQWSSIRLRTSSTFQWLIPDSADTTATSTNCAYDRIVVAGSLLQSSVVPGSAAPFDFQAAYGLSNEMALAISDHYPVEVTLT
T1 sequence (P06526 whole entry): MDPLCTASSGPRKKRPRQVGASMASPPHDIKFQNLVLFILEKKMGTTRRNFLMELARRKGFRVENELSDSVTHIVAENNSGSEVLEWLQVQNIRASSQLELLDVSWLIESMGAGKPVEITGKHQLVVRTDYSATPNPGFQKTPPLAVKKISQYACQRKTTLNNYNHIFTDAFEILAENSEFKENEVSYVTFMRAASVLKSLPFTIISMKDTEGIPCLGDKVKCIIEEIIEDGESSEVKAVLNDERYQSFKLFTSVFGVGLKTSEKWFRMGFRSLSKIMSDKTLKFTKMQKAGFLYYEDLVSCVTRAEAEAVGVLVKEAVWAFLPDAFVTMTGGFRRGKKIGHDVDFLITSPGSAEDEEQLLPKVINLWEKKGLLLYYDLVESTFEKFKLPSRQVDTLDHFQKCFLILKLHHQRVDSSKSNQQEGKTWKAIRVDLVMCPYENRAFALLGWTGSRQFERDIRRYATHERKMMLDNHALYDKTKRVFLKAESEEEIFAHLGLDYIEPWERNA

CCCCCCCC/C=C\CCCCCCCC(=O)Oc1cccc2c1C(=O)C=C(C)C2=O [2f, 5-O-oleoyl-2-methyl-1,4-naphthoquinone]
IC50 (Calf TdT): 10.6 ± 0.5 µM | effect on enzyme activity (in words) [1]: did not inhibit | IC50 ([1]; 0.05 units enzyme): > 100 µM | effect on enzyme activity (in words) (T4 polynucleotide kinase): did not inhibit | IC50 (T4 polynucleotide kinase; 0.05 units enzyme): > 100 µM | effect on enzyme activity (in words) (T7 RNA polymerase): did not inhibit | IC50 (T7 RNA polymerase; 0.05 units enzyme): > 100 µM | LD50 values (A549 (lung cancer)): 15.4 ± 1.7 µM | LD50 values (DU145 (prostate cancer)): 8.8 ± 0.9 µM | cell proliferation rate (HCT116 (colon cancer); 10 µM, MTT, control = 100%): less than 40% | cell proliferation inhibitory effect compared among the compounds (in words) (HCT116 (colon cancer); 10 and 100 µM, MTT, Fig. 5): strongest effects on cancer cell proliferation suppression | LD50 values (HCT116 (colon cancer); MTT assay, mean ± SD (n = 5)): 6.5 µM and 6.5 ± 0.6 µM | LD50 values (HeLa (cervical cancer)): 21.0 ± 2.5 µM | LD50 values [2]: 7.4 ± 0.8 µM | LD50 values (MCF-7 (breast cancer)): 7.2 ± 0.7 µM | LD50 values [3]: 16.1 ± 1.8 µM | LD50 values (PC3 (prostate cancer)): 10.0 ± 1.1 µM
